# In patent US20240368122A1, “JAK2 INHIBITORS AND METHODS OF USE THEREOF” (RELAY THERAPEUTICS, INC., priority 2021, published 2024):
# Like-named read-outs stand apart in the source and are kept apart here.
# How the values were obtained:
# [1] = molecular target: T1, JAK2 JH2 WT (V536-D812) [W659A, W777A, F794H solubilizing mutations] (Homo sapiens, UniProt O60674, F794H/W659A/W777A); assay: Surface Plasmon Resonance (SPR) binding assay, JAK2 JH2 domain
# T1 construct: **JAK2 JH2 WT (V536-D812) [W659A, W777A, F794H solubilizing mutations]; C-thrombin-avi-His6; thrombin cleavage site (C); His6 (C); purchased Biortus
# T1 sequence (O60674 536-812 W659A/W777A/F794H): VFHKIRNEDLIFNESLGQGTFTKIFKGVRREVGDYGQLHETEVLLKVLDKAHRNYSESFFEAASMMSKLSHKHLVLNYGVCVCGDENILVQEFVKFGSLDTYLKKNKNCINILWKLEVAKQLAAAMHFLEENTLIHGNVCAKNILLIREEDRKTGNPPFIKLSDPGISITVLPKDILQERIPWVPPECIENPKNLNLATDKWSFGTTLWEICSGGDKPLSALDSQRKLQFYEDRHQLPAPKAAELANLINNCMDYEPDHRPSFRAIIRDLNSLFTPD
# How it was run: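 Kinetics came from 1:1 fits of single-cycle runs at 20 °C: four 3-fold dilutions from 5 uM for JH1 or 500 nM for JH2, 60 s association, and 300 s or 1200 s dissociation respectively. Protein was freshly captured per compound in the presence of 10 uM stabilizer compound, with running buffer of pH 7.5 HEPES/NaCl/glycerol/DTT plus 2% DMSO.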
# [2] = tested on: TF1 JAK2 V617F STAT3 reporter; assay: Cellular TF1 STAT3 assay (luciferase reporter), JAK2 V617F; assay type: cell-based; conditions: read-out: Cell PD-TF1 JAK2 V617F STAT3 (IC50)
# How it was run: (§1)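 TF1 V617F JAK2 reporter cells, 10k/well; 10-pt 1:3 dose response from 10 mM 1000× DMSO stock; 18-20 h, 37 °C, 5% CO2; ONE-glo, 10 min RT; luminescence. Triplicate plates, DMSO vehicle.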
# [3] = tested on: TF1 JAK2 V617F STAT5 reporter; assay: Cellular TF1 STAT5 assay (luciferase reporter), JAK2 V617F; assay type: cell-based; conditions: read-out: Cell PD TF1 V617F STAT5 (IC50)
# How it was run: as §1
# [4] = Homo sapiens, TF-1, TF1 cells, JAK2 V617F
SMILES,Kd [1] [nM],"IC50 [2, 4] [nM]","IC50 [3, 4] [nM]","Kd ([1]; SPR, JAK2 JH2 domain) [nM]",IC50 ([2]; TF1 JAK2 V617F) [nM],IC50 ([3]; TF1 JAK2 V617F) [nM]
CNC(=O)c1nnc(NC(=O)C2CC2)cc1Nc1cccc(-c2ccc(C3CN(Cc4cccnc4C(F)F)C3)nc2)c1OC [Compound 288],50 to 500,5000 to 100000,5000 to 100000,–,–,–
CNC(=O)c1nnc(NC(=O)C2CC2)cc1Nc1ccc(C)c(-c2ccc(C3CN(Cc4cccc(C#N)n4)C3)nc2)c1OC [Compound 320],0.01 to 10,500 to 5000,500 to 5000,–,–,–
COc1c(Nc2cc(NC(=O)C3CC3)nn3cc(C)nc23)cccc1-c1ccc(C(=O)N(C)Cc2cc(C#N)ccn2)nc1 [Compound 219],0.01 to 10,500 to 5000,500 to 5000,–,–,–
CNC(=O)c1nnc(NC(=O)C2CC2)cc1Nc1cccc(-c2ccc(C(=O)N(C)Cc3cccc(OC(F)F)c3)nc2)c1OC [Compound 80],–,–,–,0.01 to 10,50 to 500,500 to 5000
CNC(=O)c1nnc(NC(=O)C2CC2)cc1Nc1ccc(C)c(-c2cnc(C(=O)N(C)Cc3cc(S(C)(=O)=O)ccn3)c(F)c2)c1OC [Compound 340],0.01 to 10,50 to 500,50 to 500,–,–,–
[2H]C([2H])([2H])NC(=O)c1nnc(NC(=O)C2CC2)cc1Nc1cccc(-c2cnc(C(=O)N(C)Cc3ccn(C)n3)nc2)c1OC [Compound 62],–,–,–,0.01 to 10,500 to 5000,500 to 5000
CNC(=O)c1nnc(NC(=O)C2CC2)cc1Nc1ccc(C)c(-c2cnc(C(=O)N(C)Cc3ncc(COC)s3)c(F)c2)c1OC [Compound 314],0.01 to 10,500 to 5000,50 to 500,–,–,–
CNC(=O)c1nnc(NC(=O)C2CC2)cc1Nc1cccc(-c2ccc(C(=O)N(C)Cc3csc(C)n3)nc2)c1OC [Compound 174],–,–,–,0.01 to 10,50 to 500,50 to 500
CNC(=O)c1nnc(NC(=O)C2CC2)cc1Nc1cccc(-c2ccc(C(=O)N(C)Cc3ccccn3)nc2)c1OC [Compound 19],–,–,–,0.01 to 10,500 to 5000,500 to 5000
CNC(=O)c1nnc(NC(=O)C2CC2)cc1Nc1cccc(-c2ccc(C(=O)N(C)Cc3csc(C(C)C)n3)nc2)c1OC [Compound 199],0.01 to 10,50 to 500,50 to 500,–,–,–
"CNC(=O)c1nnc(NC(=O)C2CC2)cc1Nc1cccc(-c2ccc(C(=O)N(C)[C@@H](C)c3ccn(C)n3)nc2)c1OC (single isomer, unassigned) [Compound 160]",–,–,–,0.01 to 10,500 to 5000,500 to 5000

# Next, values leading:
Kd [1] [nM],"IC50 [2, 4] [nM]","IC50 [3, 4] [nM]","Kd ([1]; SPR, JAK2 JH2 domain) [nM]",IC50 ([2]; TF1 JAK2 V617F) [nM],IC50 ([3]; TF1 JAK2 V617F) [nM],SMILES
0.01 to 10,500 to 5000,500 to 5000,–,–,–,CNC(=O)c1nnc(NC(=O)C2CC2)cc1Nc1cccc(-c2cnn(C3CN(Cc4ncccc4O)C3)c2)c1OC [Compound 365]
0.01 to 10,50 to 500,500 to 5000,–,–,–,CNC(=O)c1nnc(NC(=O)C2CC2)cc1Nc1nccc(-c2cnn(C3CN(Cc4ccccn4)C3)c2)c1OC [Compound 218]
–,–,–,0.01 to 10,500 to 5000,500 to 5000,CNC(=O)c1nnc(NC(=O)C2CC2)cc1Nc1cccc(-c2cnn(C3CN(Cc4ncsc4C)C3)c2)c1OC [Compound 125]
–,500 to 5000,5000 to 100000,0.01 to 10,–,–,"CNC(=O)c1nnc(NC(=O)C2CC2)cc1Nc1cccc(-c2cnn([C@H]3C[C@H]([C@H](O)c4ccccn4)C3)c2)c1OC (single isomer, unassigned) [Compound 397]"
0.01 to 10,500 to 5000,500 to 5000,–,–,–,CNC(=O)c1nnc(NC(=O)C2CC2)cc1Nc1cccc(-c2cnn(C3CN(Cc4cccc(C(C)(C)COC)n4)C3)c2)c1OC [Compound 351]
0.01 to 10,50 to 500,50 to 500,–,–,–,CNC(=O)c1nnc(NC(=O)C2CC2)cc1Nc1cccc(-c2cnn(C3CN(Cc4cccc(C5CC5)n4)C3)c2)c1OC [Compound 276]
0.01 to 10,500 to 5000,500 to 5000,–,–,–,CNC(=O)c1nnc(NC(=O)C2CC2)cc1Nc1cccc(-c2cnn([C@@H]3CN(Cc4cccnn4)[C@H]3C)c2)c1OC (stereo in doubt) [Compound 323]
–,–,–,0.01 to 10,50 to 500,50 to 500,CNC(=O)c1nnc(NC(=O)C2CC2)cc1Nc1cccc(-c2cnn(C3CN(Cc4cc(C)ccn4)C3)c2)c1OC [Compound 111]
